# Assay results from patent US20210139993A1, “METHOD FOR PREDICTING SURVIVAL IN CHILDREN WITH ACUTE LYMPHOBLASTIC LEUKEMIA” (UNIVERSITAT AUTONOMA DE BARCELONA, priority 2017, published 2021).
# Tested on: childhood ALL patients with adverse cytogenetics harboring t(9; 22)
# Experiment: Kaplan-Meier survival of childhood ALL patients by cytogenetic risk group
# Assay type: in vivo, human
# Details: five of the six cases with adverse cytogenetics
# Description: One hundred and seventy-three patients diagnosed with ALL and younger than 18 years were recruited from Sant Joan de Déu Hospital, Barcelona, Spain and from Cruces Hospital, Barakaldo, Spain between 1996 and 2012. Patients were all from Caucasian descent. […] Samples were extracted when patients were at complete remission or without cytogenetic aberrations affecting chromosomes where the polymorphisms are located. Clinical data were collected at diagnosis, including sex, age, leukemia type (T-cell, B-cell or mixed), WBC count, cytogenetic risk group and treatment protocol (Table 1). The different cytogenetic risk groups were classified according to the criteria from the Spanish Society of Pediatric Hematology and Oncology as follow: Presence of t(9; 22), t(4; 11) or MLL rearrangements at 11q23, or hipodiploidy (<44 chromosomes) was considered adverse group. Presence of 412; 21) or hiperdiploidy (>50 chromosomes) was considered favorable and all other cases were considered to belong to intermediate cytogenetic risk group. […] Every genotype was analyzed separately and moreover, in case of CNVs, null genotypes were tested vs. non-null genotypes, and in case of SNPs, heterozygotes were grouped together with either homozygote genotype.
smiles,measurement,value
Cc1ccc(NC(=O)c2ccc(CN3CCN(C)CC3)cc2)cc1Nc1nccc(-c2cccnc2)n1 [imatinib],treatment outcome,successful
